Reference: patent US12643910B2, “Substituted pyrazolo[3,4-b]pyridines as ectonucleotide pyrophosphatase/phosphodiesterase 1 (ENPP1) modulators” (SANFORD BURNHAM PREBYS MEDICAL DISCOVERY INSTITUTE, priority 2019, dated 2026)

Assays:
human ENPP1 = biological target: T1, human ENPP1 (Homo sapiens, UniProt P22413); test: ENPP1 assay with ATP substrate (Transcreener AMP2/GMP2 TR-FRET); format: biochemical; conditions: 1 hour at room temperature
T1 construct: made in house
T1 sequence (P22413 1-925): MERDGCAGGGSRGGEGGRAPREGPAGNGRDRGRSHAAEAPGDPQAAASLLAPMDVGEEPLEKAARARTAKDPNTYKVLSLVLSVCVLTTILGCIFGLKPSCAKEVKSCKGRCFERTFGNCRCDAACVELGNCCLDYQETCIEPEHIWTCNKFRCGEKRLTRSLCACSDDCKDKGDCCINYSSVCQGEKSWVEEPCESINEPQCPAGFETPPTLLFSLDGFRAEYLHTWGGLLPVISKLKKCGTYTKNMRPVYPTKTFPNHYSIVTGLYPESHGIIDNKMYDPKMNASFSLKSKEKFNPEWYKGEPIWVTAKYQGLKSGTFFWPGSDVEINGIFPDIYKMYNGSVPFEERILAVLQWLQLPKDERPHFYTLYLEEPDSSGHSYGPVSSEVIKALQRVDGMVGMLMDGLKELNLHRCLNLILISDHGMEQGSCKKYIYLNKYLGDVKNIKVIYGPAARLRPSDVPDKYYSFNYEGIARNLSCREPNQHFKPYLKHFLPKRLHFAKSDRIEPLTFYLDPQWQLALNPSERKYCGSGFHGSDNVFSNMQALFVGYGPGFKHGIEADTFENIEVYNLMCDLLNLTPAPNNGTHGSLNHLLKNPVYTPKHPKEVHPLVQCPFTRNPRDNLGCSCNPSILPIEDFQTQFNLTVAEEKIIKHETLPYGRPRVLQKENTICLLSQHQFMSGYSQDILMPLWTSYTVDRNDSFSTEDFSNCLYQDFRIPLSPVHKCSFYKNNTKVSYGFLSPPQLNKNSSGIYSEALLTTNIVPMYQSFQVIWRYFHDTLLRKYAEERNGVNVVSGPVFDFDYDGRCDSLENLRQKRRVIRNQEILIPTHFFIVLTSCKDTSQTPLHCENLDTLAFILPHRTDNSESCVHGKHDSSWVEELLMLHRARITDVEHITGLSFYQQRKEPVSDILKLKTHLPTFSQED
Procedure, shortened: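 5′-AMP from ATP hydrolysis (300 nM ATP stock added; enzyme added as 8.5 μM stock) detected by competitive TR-FRET. Buffer: 50 mM Tris pH 7.5, 1 mM TCEP, 2 mM MgCl2, 0.005% Tween 20, 1% DMSO. Reaction 1 h at room temperature, EDTA stop. IC50 from 2-parameter variable-slope fit.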

ENPP3 = biological target: T2, ENPP3 (Homo sapiens, UniProt O14638); test: ENPP3 Km ATP assay; format: biochemical; conditions: ATP at Km
T2 sequence (O14638 1-875): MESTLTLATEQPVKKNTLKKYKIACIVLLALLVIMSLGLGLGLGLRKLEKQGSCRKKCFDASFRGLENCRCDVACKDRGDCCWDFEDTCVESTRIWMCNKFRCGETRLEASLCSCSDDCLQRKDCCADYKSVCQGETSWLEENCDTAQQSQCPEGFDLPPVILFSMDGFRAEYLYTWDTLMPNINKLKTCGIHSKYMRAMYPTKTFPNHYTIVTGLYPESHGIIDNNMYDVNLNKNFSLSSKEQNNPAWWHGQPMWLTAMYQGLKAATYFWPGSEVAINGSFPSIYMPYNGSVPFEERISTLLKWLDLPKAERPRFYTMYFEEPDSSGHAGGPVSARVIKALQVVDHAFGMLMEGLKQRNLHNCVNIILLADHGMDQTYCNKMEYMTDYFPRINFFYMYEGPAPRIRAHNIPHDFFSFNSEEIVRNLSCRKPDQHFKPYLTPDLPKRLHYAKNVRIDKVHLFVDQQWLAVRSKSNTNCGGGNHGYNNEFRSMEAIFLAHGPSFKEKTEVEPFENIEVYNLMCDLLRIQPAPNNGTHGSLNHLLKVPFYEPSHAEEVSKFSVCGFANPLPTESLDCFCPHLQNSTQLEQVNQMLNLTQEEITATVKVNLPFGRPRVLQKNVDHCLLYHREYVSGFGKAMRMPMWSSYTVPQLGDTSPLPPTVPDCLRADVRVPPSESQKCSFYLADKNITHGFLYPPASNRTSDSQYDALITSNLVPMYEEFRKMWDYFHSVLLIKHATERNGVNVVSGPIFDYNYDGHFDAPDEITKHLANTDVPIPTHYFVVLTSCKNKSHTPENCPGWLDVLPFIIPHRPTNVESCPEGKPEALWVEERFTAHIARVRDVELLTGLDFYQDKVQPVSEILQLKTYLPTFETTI

| Structure (SMILES) | IC50 (human ENPP1) [µM] | IC50 (ENPP3) [µM] |
| --- | --- | --- |
| COc1nc(NCc2ccc(S(N)(=O)=O)cc2)c2c(Br)nn(C)c2n1 [Example 2.96, 4-((3-Bromo-6-methoxy-1-methyl-1H-pyrazolo[3,4-d]pyrimidin-4-yl)aminomethyl)-benzenesulfonamide] | < 0.1 | < 0.1 |
| Cn1ncc2c(NCc3ccc(S(N)(=O)=O)cc3Cl)ncnc21 [Example 2.47, 3-Chloro-4-(((1-methyl-1H-pyrazolo[3,4-d]pyrimidin-4-yl)amino)methyl)-benzenesulfonamide] | 0.1 to 1 | 1 to 20 |
| Cn1nnc2c(NCc3ccc(S(N)(=O)=O)cc3)ncnc21 [Example 2.58, 4-(((3-Methyl-3H-[1,2,3]triazolo[4,5-d]pyrimidin-7-yl)amino)methyl)benzenesulfonamide] | 1 to 20 | 1 to 20 |
| Cc1csc2c(N3CCC(NC(=O)CCc4ccc(F)cc4)CC3)ncnc12 [Example 3.20, 3-(4-Fluorophenyl)-N-(1-(7-methylthieno[3,2-d]pyrimidin-4-yl)piperidin-4-yl)propanamide] | > 20 | > 20 |
| Cn1ncc2c(NCc3ccc(S(N)(=O)=O)cc3)nc(NC3CC3)nc21 [Example 2.35, 4-(((6-(Cyclopropylamino)-1-methyl-1H-pyrazolo[3,4-d]pyrimidin-4-yl)amino)methyl)-benzenesulfonamide] | 0.1 to 1 | 0.1 to 1 |
| CN(C)c1nc(NCc2ccc(S(N)(=O)=O)cc2)c2cnn(C)c2n1 [Example 2.28, 4-(((6-(Dimethylamino)-1-methyl-1H-pyrazolo[3,4-d]pyrimidin-4-yl)amino)methyl)-benzenesulfonamide] | 1 to 20 | 0.1 to 1 |
| Cn1ncc2c(NCc3ccc(S(N)(=O)=O)cc3)cc(C3CC3)nc21 [Example 2.134, 4-((6-Cyclopropyl-1-methyl-1H-pyrazolo[3,4-b]pyridin-4-yl)aminomethyl)-benzenesulfonamide] | 1 to 20 | 1 to 20 |
| Cc1nsc2c(N3CCC(NCCCc4ccc(F)cc4)CC3)ncnc12 [Example 3.59, N-(3-(4-Fluorophenyl)propyl)-1-(3-methylisothiazolo[4,5-d]pyrimidin-7-yl)piperidin-4-amine] | 1 to 20 | > 20 |
| CN1CCN(c2nc(NCc3ccc(S(N)(=O)=O)cc3)c3c(-c4ccccc4)csc3n2)CC1 [Example 1.25, 4-(((2-(4-Methylpiperazin-1-yl)-5-phenylthieno[2,3-d]pyrimidin-4-yl)amino)methyl)-benzenesulfonamide] | < 0.1 | < 0.1 |
| N#Cc1ccc(CNc2nc(-c3ccccn3)nc3scc(-c4ccccc4)c23)cc1 [Example 1.11, 4-[(5-Phenyl-2-pyridin-2-yl-thieno[2,3-d]pyrimidin-4-ylamino)-methyl]-benzonitrile] | > 20 | > 20 |
| NS(=O)(=O)c1ccc(CNc2nc(-c3ccccc3)nc3scc(-c4ccccc4)c23)cc1 [Example 1.24, 4-(((2,5-Diphenylthieno[2,3-d]pyrimidin-4-yl)amino)methyl)benzenesulfonamide] | > 20 | > 20 |
| CCn1ncc2c(NCc3ccc(S(N)(=O)=O)cc3)nc(OCCC(C)(C)OC)nc21 [Example 2.98, 4-((1-Ethyl-6-(3-methoxy-3-methylbutoxy)-1H-pyrazolo[3,4-d]pyrimidin-4-yl)aminomethyl)-benzenesulfonamide] | < 0.1 | 1 to 20 |
| Cc1cc(CNc2ccnc3c2cnn3C)ccc1S(N)(=O)=O [Example 2.70, 2-Methyl-4-(((1-methyl-1H-pyrazolo[3,4-b]pyridin-4-yl)amino)methyl)-benzenesulfonamide] | 0.1 to 1 | 1 to 20 |
| CCNc1nc(NCc2ccc(S(N)(=O)=O)cc2F)c2cnn(C)c2n1 [Example 2.141, 4-(((6-(Ethylamino)-1-methyl-1H-pyrazolo[3,4-d]pyrimidin-4-yl)amino)methyl)-3-fluorobenzenesulfonamide] | 0.1 to 1 | 0.1 to 1 |
| c1ccc(-c2csc3nc(-c4ccccn4)nc(NCc4cccnc4)c23)cc1 [Example 1.1, 5-Phenyl-2-(pyridin-2-yl)-N-(pyridin-3-ylmethyl)thieno[2,3-d]pyrimidin-4-amine] | 1 to 20 | > 20 |
| CCSc1nc(NCc2ccc(S(N)(=O)=O)cc2)c2cnn(C)c2n1 [Example 2.108, 4-((6-(Ethylsulfanyl)-1-methyl-1H-pyrazolo[3,4-d]pyrimidin-4-yl)aminomethyl)-benzenesulfonamide] | < 0.1 | < 0.1 |
| Cc1csc2c(N3CCC(NCc4ccc(F)cc4)CC3)ncnc12 [Example 3.42, N-(4-Fluorobenzyl)-1-(7-methylthieno[3,2-d]pyrimidin-4-yl)piperidin-4-amine] | 1 to 20 | > 20 |
| Cc1csc2c(N3CCC(NCCOc4ccc(F)cc4)CC3)ncnc12 [Example 3.23, N-(2-(4-Fluorophenoxy)ethyl)-1-(7-methylthieno[3,2-d]pyrimidin-4-yl)piperidin-4-amine] | > 20 | > 20 |
| CCSc1nc(NCc2ccc(S(N)(=O)=O)cc2)c2cnn(CC)c2n1 [Example 2.109, 4-((1-Ethyl-6-(ethylsulfanyl)-1H-pyrazolo[3,4-d]pyrimidin-4-yl)aminomethyl)-benzenesulfonamide] | < 0.1 | 0.1 to 1 |
| Cc1csc2c(N3CCC(NCc4ccncc4)CC3)ncnc12 [Example 3.2, 1-(7-Methylthieno[3,2-d]pyrimidin-4-yl)-N-(pyridin-4-ylmethyl)piperidin-4-amine] | 1 to 20 | > 20 |
| Cc1csc2c(N3CCC(NC(=O)Cc4ccc(F)cc4)CC3)ncnc12 [Example 3.43, 2-(4-Fluorophenyl)-N-(1-(7-methylthieno[3,2-d]pyrimidin-4-yl)piperidin-4-yl)acetamide] | 1 to 20 | > 20 |
| COc1ccc(CCC(=O)NC2CCN(c3ncnc4c(C)csc34)CC2)cc1 [Example 3.31, 3-(4-Methoxyphenyl)-N-(1-(7-methylthieno[3,2-d]pyrimidin-4-yl)piperidin-4-yl)propanamide] | > 20 | > 20 |
| Cc1csc2c(N3CCC(NCCCc4cccc(C(F)(F)F)c4)CC3)ncnc12 [Example 3.12, 1-(7-Methylthieno[3,2-d]pyrimidin-4-yl)-N-(3-(3-(trifluoromethyl)phenyl)propyl)piperidin-4-amine] | 0.1 to 1 | > 20 |
| Cc1csc2c(N3CCC(NCCCc4ccncc4)CC3)ncnc12 [Example 3.1, 1-(7-Methylthieno[3,2-d]pyrimidin-4-yl)-N-(3-(pyridin-4-yl)propyl)piperidin-4-amine] | 0.1 to 1 | > 20 |
| Cn1ncc2c(NCc3ccc(S(N)(=O)=O)cc3)nc(OCC(F)(F)F)nc21 [Example 2.99, 4-((6-(2,2,2-Trifluoroethoxy)-1-methyl-1H-pyrazolo[3,4-d]pyrimidin-4-yl)aminomethyl)-benzenesulfonamide] | 0.1 to 1 | 0.1 to 1 |
| Cn1ncc2c(N3CCC(NCCCc4ccncc4)CC3)nc(-c3ccccc3)nc21 [Example 2.7, 1-(1-Methyl-6-phenyl-1H-pyrazolo[3,4-d]pyrimidin-4-yl)-N-(3-(pyridin-4-yl)propyl)piperidin-4-amine] | > 20 | > 20 |
